Results taken from patent US20180055816A1, “PYRANONAPHTHOQUINONE COMPOUNDS AND METHODS OF USE THEREOF” (University of Kentucky Research Foundation, priority 2016, published 2018).

Experiments:
Type in all cases: cell-based, human
GSSG = assay: Quantification of glutathione disulfide (GSSG) in HCT116 cells; settings: HCT116, 2 μM, 5 h
Protocol: Cells were treated with 2 μM of the indicated compounds or DMSO as control for 5 h. Quantification of GSSG was essentially performed using the manufactures instructions for a microplate assay for GSH/GSSG (Oxford Biomedical Research, Inc, Oxford, Mich.). A total number of 0.5×10^6 cells were collected in 1.5 ml centrifuge tubes containing ice-cold buffer with the thiol scavenger to keep GSSG in its oxidized form. The cells were homogenized with a Teflon pestle and the cell suspension sonicated in icy water for 2-3 minutes. Ice-cold metaphosphoric acid was added to deproteinate the samples. The samples were centrifuged at 1000×g at 4° C. and the supernatants were used for determining the GSSG concentration according to the manufactures protocol using a microplate reader with 405 nm filter. The change in GSSG levels in the indicated compound-treated samples was expressed as fold change compared to control (DMSO) treated samples.

H2O2 = assay: Cellular H2O2 level in HCT116 cells; settings: HCT116, 2 μM, 5 h
Protocol: The ROS production was determined using the CellROX Deep Red Flow Cytometry Assay Kit according to the manufacturer's protocol (Life Technologies). Briefly, cells were treated with 2 μM of the indicated compounds or DMSO as control for 1 h. After treatment, cells were incubated with 0.5 μM of CellROX Deep Red reagent for 1 h at 37° C., washed twice with PBS and immediately analyzed by a FACScan flow cytometer. For the measurement of cellular H2O2 level, cells were treated with 2 μM of the indicated compounds for 5 h.

caspase 3 = assay: Caspase 3 activation / cleaved PARP in HCT116 cells (Western blot); settings: HCT116, 2 μM, 12 h
Protocol: HCT116 cells were treated with 1 μM MK2206 and 100 nM PD0325901 alone and in combination, 100 nM rapamycin, 0.5 μM AZD8055, 2 μM UCF76-A or 2 μM FB for 12 h followed by Western blot analysis for the indicated proteins.
Cells were lysed in NP-40 lysis buffer (50 mM Tris-HCl, pH 7.5, 150 mM NaCl, 1 mM EDTA, 1% NP-40, 10% glycerol, protease and phosphatase inhibitor cocktail). Western blot analysis were performed using equivalent total protein loadings as described previously. For immunoprecipitation, the cell lysates were incubated with the indicated antibody overnight followed by incubation with a 50% slurry of protein G sepharose beads for 3 h at 4° C. The beads were washed three times with the lysis buffer, and the immunoprecipitated protein complexes were resuspended in 2× Laemmli sample buffer followed by western blot analysis.

Structure (SMILES): CCCC1OC2CC(=O)OC2C2=C1C(=O)c1c(O)cccc1C2=O (stereo not drawn) [FB, frenolicin B]
- GSSG levels (GSSG): increase
- cellular H2O2 (H2O2): marked increase
- activation of caspase 3 with induction of cleaved PARP (caspase 3): potent activators
